Laboratory results: patent publication US9556113B2, “Combination uses of dichloroacetate and oxamate, and their prodrugs, for cancer treatment” (The South Dakota Board of Regents, priority 2014, dated 2017)

Columns and labels:
[1] = In vivo release of DCA and oxamate from prodrugs, blood LC/MS/MS; set-up: species or system female C57BL/6 mice; conditions: i.p., 7.6 mg/mouse
Experimental: FIG. 16 provides LC/MS chromatograms derived from blood samples of mice dosed with prodrug 1 (AT-N4-001) (A). Mice were dosed with prodrug 1 (7.6 mg/mouse) by i.p. Blood samples were collected at 5 min and 25 min for mice dosed with prodrug 1 through retro-orbital bleeding with mice under general anesthesia. After protein precipitation by acetonitrile, samples were analyzed by LC/MS/MS. For samples derived from mice dosed with prodrug 1, the electrospray ion source was operated in the negative ionization mode for four minutes to detect DCA and oxamate before switched to the positive ionization mode to detect prodrug 1. Selected reaction monitoring (SRM) was performed to monitor the mass transition of 386→297 (1), 127→83 (DCA) and selected ion monitoring (SIM) was performed to monitor oxamate at the m/z of 88.0.
FIG. 17 provides LC/MS chromatograms derived from blood samples of mice dosed with prodrug 2 (AT-N4-002) (B). Mice were dosed with prodrug 2 (7.6 mg/mouse) by i.p. Blood samples were collected at 5 min and 30 min for a mouse dosed with prodrug 2 through retro-orbital bleeding with mice under general anesthesia. After protein precipitation by acetonitrile, samples were analyzed by LC/MS/MS. For samples derived from mice dosed with prodrug 2, all the parameters were the same as set for prodrug 1 except the electrospray ion source was operated in the negative ionization mode for all the analytes. Prodrug 2 was detected by monitoring the mass transition of 384→126.
In vivo release of the prodrugs was investigated with female C57BL/6 mice. Mice were housed four in a cage and received food and water ad libitum. All mice were used at approximately 7-10 weeks of age and given at least one week break after arrival. All experimental protocols were approved by the Institutional Animal Care and Use Committee at South Dakota State University. A prodrug (1 or 2), suspended in 3% (v/v) Tween 80 in saline (30.4 mg/ml), was administered (7.6 mg/mouse) to mice by i.p. Blood samples were obtained through retro-orbital bleeding with mice under general anesthesia through the use of isoflurane. The blood samples were immediately frozen in liquid nitrogen and stored at −80° C. freezer before LC/MS/MS analysis.
The blood sample was quickly thawed at 37° C. The sample (200 μl) was first mixed with acetonitrile ([…]) and centrifuged at 14000 rpm for 2 min at 4° C. The precipitates were washed with additional acetonitrile (2×200 μl) and centrifuged. […]
LC/MS/MS analysis was completed on a ThermoFinnigan TSQ Quantum Ultra triple quadrupole mass spectrometer coupled with an Agilent Eclipse XDB-C18 column ([…], 5 μm) equipped with an Agilent XDB-C8 guard column. […] Prodrug 2 was detected by monitoring the mass transition of 384→126.

HPV+ HNSCC tumor [2] = assay: IHC of tumors for cleaved caspase 3 and Ki67; assay type: in vivo, wild-type mice; conditions: one week treatment plus one round of CRT
Source text: FIG. 10 illustrates Effect of AT-N4-002 on tumor cell apoptosis and cell proliferation. (A) Sections of tumors from mice treated either with chemo-radiation (Tx) or chemoradiation plus AT-N4-002 were subjected to IHC to detect cleaved caspase 3 or Ki67. (B) Cleaved caspase 3 positive cells were counted in 5 random fields from the IHC experiment shown in A. (C) The percent of Ki67 positive cells from the IHC experiment shown in A.
To examine potential direct, immune-independent effects of the prodrug on tumors, tumor bearing wild-type mice were treated for one week with AT-N4-002 plus one round of chemoradiation. Tumors were then harvested and processed for immunohistochemical detection of Ki67, a proliferation marker, and cleaved caspase 3, a marker for apoptosis (FIG. 10). […] Such direct effects on the tumor cells could be responsible for the reduced tumor growth observed in immune deficient mice.

HPV+ HNSCC tumor [3] = assay: Intratumoral pH and tumor lactate; assay type: in vivo, wild-type mice
Experimental: FIG. 11 illustrates the effect of prodrug on tumor pH and tumor lactate. (A) Intratumoral pH in living animals was determined by inserting a needle pH electrode directly into the tumor. The pH was read at 3 different depths in each tumor. Each marker on the graph represents a separate pH measurement. The bar represents the mean and the error bars the standard deviation. (B) Frozen sections of excised tumors were used to estimate lactate levels in the tumor microenvironment. This was performed using the In Vivo Xtreme imager to visualize lactate-dependent luciferase activity as described by Broggini-Tenzer et al. [Metabolism of tumors under treatment: mapping of metabolites with quantitative bioluminescence. Radiother Oncol 99, 398-403 (2011)]. (C) Plot of lactate measurements in B. Each marker represents one tumor. The bar represents the mean and the error bars the standard deviation.
The ability of DCA and oxamate to enhance survival in wild-type mice following chemoradiation correlates closely with their ability to reduce tumor lactate. We therefore examined the ability of the prodrug AT-N4-002 to reduce tumor lactate. Wild-type tumor bearing mice were treated with either CRT or CRT followed by one week of daily ip injection of AT-N4-002. Lactate is exported from cells together with a proton and therefore promotes acidification of the tumor microenvironment. Intratumoral pH was measured with a needle pH electrode. […] (FIG. 11B,C).

HPV+ HNSCC tumor [4] = assay: Tumor growth and survival with chemoradiation in RAG-1 immune-deficient mice; assay type: in vivo, RAG-1 mice; conditions: in combination with chemoradiation
Experimental: FIG. 9 illustrates the effect of AT-N4-002 prodrug on tumor growth (A) and animal survival (B) in RAG-1 immune-deficient mice. Treatment conditions are the same as those described in FIG. 7.
To examine whether the prodrug AT-N4-002 also requires an immune response to control tumor growth, experiments were performed in RAG-1 mice. Based on our previous experience with DCA, we hypothesized that survival and tumor clearance would not be observed in these immune deficient mice following treatment with AT-N4-002. […] These immune-independent effects of AT-N4-002 on tumor growth in immune-deficient mice could be due to direct effects on tumor cell growth or cell death as described in Example 9, below.

[5] = CRT followed by one week of daily ip injection

Structure (SMILES) | release of DCA and oxamate in vivo [1] | prodrug in blood samples ([1]; after 25 min) | prodrug in blood samples ([1]; after 30 min) | Ki67 positive cells in tumor (FIG. 10C) (HPV+ HNSCC tumor [2]) | cleaved caspase 3 positive cells in tumor compared to CRT alone (FIG. 10B) (HPV+ HNSCC tumor [2]) | intratumoral pH compared to CRT group (FIG. 11A) (HPV+ HNSCC tumor [3]; [5]) | tumor lactate (FIG. 11B,C) (HPV+ HNSCC tumor [3]; [5]) | lactate production and acidity in tumor tissues versus DCA plus oxamate (HPV+ HNSCC tumor [3]; separate in vivo experiment, data not shown) | survival in RAG-1 mice (FIG. 9B) (HPV+ HNSCC tumor [4]) | tumor growth in RAG-1 mice (FIG. 9A) (HPV+ HNSCC tumor [4])
NC(=O)C(=O)OC(COC(=O)C(Cl)Cl)COC(=O)C(Cl)Cl [AT-N4-001, 2-(2-Amino-2-oxoacetoxy)propane-1,3-diyl bis(2,2-dichloroacetate)] | quickly released DCA and oxamate | No prodrug was detected |  |  |  |  |  |  |  | 
NC(=O)C(=O)OCC(COC(=O)C(Cl)Cl)OC(=O)C(Cl)Cl (centres unmarked) [AT-N4-002, 3-(2-amino-2-oxoacetoxy)propane-1,2-diyl bis(2,2-dichloroacetate)] | quickly released DCA and oxamate |  | No prodrug was detected | appeared to decrease | significantly increased | significantly higher | decreased tumor lactate | more effective in reducing lactate production and acidity in tumor tissues than DCA plus oxamate | lengthened survival | slowed tumor growth
